Our source for the IC50 values is patent US7427627B2, “N-(4-(4-methylthiazol-5-yl) pyrimidin-2-yl)-N-phenylamines as antiproliferative compounds” (Cyclacel Limited, priority 2001, dated 2008).

Where two headings read alike, the source gives them in different places.

One assay deals with HT29. As to the kind of experiment: 72-h MTT cytotoxicity assay, HT29. The format is cell-based. The note with it: Homo sapiens, HT-29, read-out: 72-h MTT in vitro IC50 (μM) HT29; Table 1; 72 h. On the procedure: (§1) The compounds from the examples above were subjected to a standard cellular proliferation assay using human tumour cell lines obtained from the ATCC (American Type Culture Collection, 10801 University Boulevard, Manessas, Va. 20110-2209, USA). Standard 72-h MTT (thiazolyl blue; 3-[4,5-dimethylthiazol-2-yl]-2,5-diphenyltetrazolium bromide) assays were performed (Haselsberger, K.; Peterson, D. C.; Thomas, D. G.; Darling, J. L. Anti Cancer Drugs 1996, 7, 331-8; Loveland, B. E.; Johns, T. G.; Mackay, I. R.; Vaillant, F.; Wang, Z. X.; Hertzog, P. J. Biochemistry International 1992, 27, 501-10). In short: cells were seeded into 96-well plates according to doubling time and incubated overnight at 37° C. Test compounds were made up in DMSO and a 1/3 dilution series prepared in 100 μL cell media, added to cells (in triplicates) and incubated for 72 ho at 37° C. MTT was made up as a stock of 5 mg/mL in cell media and filter-sterilised. Media was removed from cells followed by a wash with 200 μL PBS. MTT solution was then added at 20 μL per well and incubated in the dark at 37° C. for 4 h. MTT solution was removed and cells again washed with 200 μL PBS. MTT dye was solubilised with 200 μL per well of DMSO with agitation.

A further assay deals with Saos-2. In words: 72-h MTT cytotoxicity assay, Saos-2. Conditions: Homo sapiens, SAOS-2, read-out: 72-h MTT in vitro IC50 (μM) Saos-2; Table 1; 72 h. The assay is classed as cell-based. On the procedure: as §1
In general terms: Tetrazolium dyes change colour on reduction, which living cells bring about.

The next assay deals with A549. As to the kind of experiment: 72-h MTT cytotoxicity assay, A549. The format is cell-based, human. Conditions: Table 1, 72 h. On the procedure: In short: cells were seeded into 96-well plates according to doubling time and incubated overnight at 37° C. Test compounds were made up in DMSO and a 1/3 dilution series prepared in 100 μL cell media, added to cells (in triplicates) and incubated for 72 ho at 37° C. MTT was made up as a stock of 5 mg/mL in cell media and filter-sterilised. Media was removed from cells followed by a wash with 200 μL PBS. MTT solution was then added at 20 μL per well and incubated in the dark at 37° C. for 4 h. MTT solution was removed and cells again washed with 200 μL PBS. MTT dye was solubilised with 200 μL per well of DMSO with agitation.

The target in another assay is T1, CDK2/cyclin E (Homo sapiens, UniProt P24941).
T1 construct: His6
As to the kind of experiment: Kinase assay CDK2/cyclin E. The format is biochemical. The note with it: Table 1; read-out: Kinase inhibition, IC50 (μM) CDK2/E.

In the next assay the target is CDK4/cyclin D1 (Homo sapiens, UniProt P11802). In words: Kinase assay CDK4/cyclin D1.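 Further: Enzyme: His6-tagged recombinant human CDK4 produced in baculovirus-infected Sf9 insect cells and purified by metal-chelate chromatography.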
Setting [1] is: read-out: Kinase inhibition, IC50 (μM) CDK4/D1, Table 1.
Setting [2] is: Homo sapiens, A549, read-out: 72-h MTT in vitro IC50 (μM) A549.

Chain of CDK4/cyclin D1 (P11802 whole entry): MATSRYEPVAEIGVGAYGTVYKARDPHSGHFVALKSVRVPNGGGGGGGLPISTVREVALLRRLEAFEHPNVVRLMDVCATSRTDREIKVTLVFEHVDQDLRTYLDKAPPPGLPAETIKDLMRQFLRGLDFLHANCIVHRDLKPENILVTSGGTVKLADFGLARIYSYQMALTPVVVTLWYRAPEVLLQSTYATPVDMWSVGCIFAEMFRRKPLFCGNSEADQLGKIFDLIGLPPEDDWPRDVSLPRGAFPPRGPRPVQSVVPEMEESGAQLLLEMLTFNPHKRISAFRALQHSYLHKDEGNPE
Chain of CDK4/cyclin D1 (P24385 whole entry partner): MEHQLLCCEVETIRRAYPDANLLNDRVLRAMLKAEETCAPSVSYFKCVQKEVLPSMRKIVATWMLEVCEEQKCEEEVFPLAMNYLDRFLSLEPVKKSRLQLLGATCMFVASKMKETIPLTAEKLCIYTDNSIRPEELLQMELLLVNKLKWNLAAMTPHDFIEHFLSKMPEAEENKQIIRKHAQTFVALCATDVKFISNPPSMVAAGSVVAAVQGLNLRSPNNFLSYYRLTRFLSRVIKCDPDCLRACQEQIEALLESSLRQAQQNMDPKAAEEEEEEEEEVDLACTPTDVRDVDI

As to `Cc1nc(N)sc1-c1ccnc(Nc2cccc([N+](=O)[O-])c2)n1` [Compound 1, [4-(2-Amino-4-methyl-thiazol-5-yl)-pyrimidin-2-yl]-(3-nitro-phenyl)-amine], the figures for the IC50 with HT29, in the assay with Saos-2 and in the assay on A549 (read-out: 72-h MTT in vitro IC50 (μM) A549) were 0.34 µM, 0.42 µM and 0.22 µM, respectively.

As to `Cc1nc(N)sc1-c1ccnc(Nc2cccc(Cl)c2)n1` [Compound 9, [4-(2-Amino-4-methyl-thiazol-5-yl)-pyrimidin-2-yl]-(3-chloro-phenyl)-amine], the IC50 in the assay with HT29 turned out to be 0.79 µM; at CDK2/cyclin E it was 0.02 µM; in the assay with Saos-2, 0.43 µM; at CDK4/cyclin D1 (setting [1]), 0.07 µM; in the assay with A549 (setting [2]), 0.55 µM.

For the molecule `Cc1cc(Nc2nccc(-c3sc(=O)n(C)c3C)n2)ccc1F` [Compound 41, 5-[2-(4-Fluoro-3-methyl-phenylamino)-pyrimidin-4-yl]-3,4-dimethyl-3H-thiazol-2-one], the IC50 worked out at 2.19 µM with HT29, 7.98 µM with Saos-2 and 2.41 µM in the assay with A549 (setting [2]).

As to `Cc1c(-c2ccnc(Nc3cccc(O)c3)n2)sc(=O)n1C` [Compound 37, 5-[2-(3-Hydroxy-phenylamino)-pyrimidin-4-yl]-3,4-dimethyl-3H-thiazol-2-one], the IC50 in the assay with HT29 was 1.99 µM; at CDK2/cyclin E it was 0.12 µM; with Saos-2, 0.98 µM; against CDK4/cyclin D1, 1.41 µM; with A549 (setting [2]), 0.66 µM.

For `COc1ccc(Nc2nccc(-c3sc(C)nc3C)n2)cc1OC` [Compound 23, (3,4-Dimethoxy-phenyl)-[4-(2,4-dimethyl-thiazol-5-yl)-pyrimidin-2-yl]-amine], the IC50 is 1.17 µM with HT29; 0.03 µM at CDK2/cyclin E; 2.02 µM in the assay on Saos-2; 1.06 µM at CDK4/cyclin D1 (setting [1]); 1.57 µM with A549 (setting [2]).

Turning to `Cc1nc(N)sc1-c1ccnc(Nc2ccc(I)c([N+](=O)[O-])c2)n1` [Compound 14, [4-(2-Amino-4-methyl-thiazol-5-yl)-pyrimidin-2-yl]-(4-iodo-3-nitro-phenyl)-amine], the IC50 in the assay with HT29 worked out at 0.28 µM; on CDK2/cyclin E, 0.2 µM; in the assay with Saos-2 it was 0.31 µM; against CDK4/cyclin D1, 0.64 µM; with A549 (setting [2]), 0.29 µM.

On to `Cc1nc(NC(=O)CCl)sc1-c1ccnc(Nc2ccc(F)cc2)n1` [Compound 61, 2-Chloro-N-{5-[2-(4-fluoro-phenylamino)-pyrimidin-4-yl]-4-methyl-thiazol-2-yl}-acetamide], for which the IC50 in the assay with HT29 was found to be 0.11 µM; at CDK2/cyclin E, 0.23 µM; in the assay on Saos-2 it was 0.3 µM; against CDK4/cyclin D1 it was 0.68 µM; in the assay on A549 (setting [2]), 0.33 µM.

On to `CNc1nc(C)c(-c2ccnc(Nc3ccc(N(C)C)cc3)n2)s1` [Compound 29, N,N-Dimethyl-N′-[4-(4-methyl-2-methylamino-thiazol-5-yl)-pyrimidin-2-yl]-benzene-1,4-diamine], for which the IC50 stood at 0.6 µM in the assay on HT29; 0.32 µM at CDK2/cyclin E; 0.8 µM in the assay on Saos-2; 0.99 µM on CDK4/cyclin D1; 0.4 µM in the assay with A549 (setting [2]).

With `Cc1nc(N)sc1-c1ccnc(Nc2ccc(C(F)(F)F)cc2)n1` [Compound 7, [4-(2-Amino-4-methyl-thiazol-5-yl)-pyrimidin-2-yl]-(4-trifluoromethyl-phenyl)-amine], the IC50 with HT29 came out at 1.26 µM; in the assay with Saos-2, 0.65 µM; on CDK4/cyclin D1 (setting [1]), 5.83 µM; with A549 (setting [2]), 1.03 µM.

As to `Cc1ccc(Nc2nccc(-c3sc(=O)n(C)c3C)n2)cc1[N+](=O)[O-]` [Compound 42, 3,4-Dimethyl-5-[2-(4-methyl-3-nitro-phenylamino)-pyrimidin-4-yl]-3H-thiazol-2-one], the IC50 in the assay on HT29 was found to be 0.004 µM; in the assay on Saos-2, 0.005 µM; with A549 (setting [2]), 0.003 µM.

With `Cc1c(-c2ccnc(Nc3ccc(O)cc3)n2)sc(=O)n1C` [Compound 31, 5-[2-(4-Hydroxy-phenylamino)-pyrimidin-4-yl]-3,4-dimethyl-3H-thiazol-2-one], the IC50 in the assay on HT29 is 0.87 µM; with Saos-2, 0.4 µM; in the assay with A549 (setting [2]) it was 0.29 µM.

As for `Cc1c(-c2ccnc(Nc3ccc(F)cc3)n2)sc(=O)n1C` [Compound 34, 5-[2-(4-Fluoro-phenylamino)-pyrimidin-4-yl]-3,4-dimethyl-3H-thiazol-2-one], the IC50 with HT29 amounted to 0.38 µM; in the assay on Saos-2, 1.27 µM; in the assay on A549 (setting [2]), 0.51 µM.

For the molecule `Cc1nc(N)sc1-c1ccnc(Nc2ccc(Cl)cc2)n1` [Compound 3, [4-(2-Amino-4-methyl-thiazol-5-yl)-pyrimidin-2-yl]-(4-chloro-phenyl)-amine], the IC50 came to 4.01 µM in the assay with HT29; 0.43 µM on CDK2/cyclin E; 2.61 µM with Saos-2; 0.46 µM on CDK4/cyclin D1; 2.94 µM in the assay on A549 (setting [2]).

Regarding `Cc1cc(Nc2nccc(-c3sc(=O)n(C)c3C)n2)ccc1Cl` [Compound 39, 5-[2-(4-Chloro-3-methyl-phenylamino)-pyrimidin-4-yl]-3,4-dimethyl-3H-thiazol-2-one], the IC50 on CDK2/cyclin E is 1.18 µM; at CDK4/cyclin D1 (setting [1]), 17.9 µM.

As for `Cc1c(-c2ccnc(Nc3ccc(N(C)C)cc3)n2)sc(=O)n1C` [Compound 43, 5-[2-(4-Dimethylamino-phenylamino)-pyrimidin-4-yl]-3,4-dimethyl-3H-thiazol-2-one], the IC50 in the assay with HT29 worked out at 1.69 µM; in the assay with Saos-2, 3.36 µM; against CDK4/cyclin D1 it was 3.82 µM; with A549 (setting [2]), 2.2 µM.

Consider `Cc1nc(N)sc1-c1ccnc(Nc2ccc(N(C)C)cc2)n1` [Compound 2, N-[4-(2-Amino-4-methyl-thiazol-5-yl)-pyrimidin-2-yl]-N^1,N^1-dimethyl-benzene-1,4-diamine], for which the IC50 in the assay on HT29 is 2.88 µM; in the assay with Saos-2, 1.54 µM; with A549 (setting [2]) it was 2.37 µM.

For the molecule `COc1ccc(Nc2nccc(-c3sc(C)nc3C)n2)cc1O` [Compound 24, 5-[4-(2,4-Dimethyl-thiazol-5-yl)-pyrimidin-2-ylamino]-2-methoxy-phenol], the IC50 in the assay with HT29 turned out to be 5.47 µM; in the assay with Saos-2 it was 0.16 µM; on CDK4/cyclin D1 (setting [1]), 1.68 µM; in the assay on A549 (setting [2]), 0.44 µM.

On to `Cc1nc(C)c(-c2ccnc(Nc3ccc(CCO)cc3)n2)s1` [Compound 21, 2-{4-[4-(2,4-Dimethyl-thiazol-5-yl)-pyrimidin-2-ylamino]-phenyl}-ethanol], for which the IC50 with HT29 is 3.61 µM; in the assay with Saos-2 it was 4.37 µM; on CDK4/cyclin D1 (setting [1]) it was 3.28 µM; with A549 (setting [2]), 2.79 µM.

In the case of `Cc1nc(NCCO)sc1-c1ccnc(Nc2ccc(F)cc2)n1` [Compound 59, 2-{5-[2-(4-Fluoro-phenylamino)-pyrimidin-4-yl]-4-methyl-thiazol-2-ylamino}-ethanol], the results for the IC50 on CDK2/cyclin E and on CDK4/cyclin D1 were 0.08 µM and 15 µM, respectively.

For `Cc1c(-c2ccnc(Nc3cccc([N+](=O)[O-])c3)n2)sc(=O)n1C` [Compound 32, 3,4-Dimethyl-5-[2-(3-nitro-phenylamino)-pyrimidin-4-yl]-3H-thiazol-2-one], the IC50 stood at 0.01 µM in the assay with HT29, 0.1 µM in the assay with Saos-2 and 0.01 µM in the assay on A549 (setting [2]).

As to `Cc1nc(N(C)C)sc1-c1ccnc(Nc2cccc([N+](=O)[O-])c2)n1` [Compound 52, [4-(2-Dimethylamino-4-methyl-thiazol-5-yl)-pyrimidin-2-yl]-(3-nitro-phenyl)-amine], the IC50 came to 3.41 µM in the assay on HT29; 2.57 µM in the assay with Saos-2; 10 µM against CDK4/cyclin D1 (Kinase inhibition, IC50 (μM) CDK4/D1, Table 1); 2.47 µM in the assay on A549 (setting [2]).
